Measured values reported in article PMC9232501, “Results of the phase I CCTG IND.231 trial of CX-5461 in patients with advanced solid tumors enriched for DNA-repair deficiencies” (Nature Communications, 2022).
Where “and” joins values, the source holds several entries; their conditions need not be identical. Equal values may be shown once.

Assays:
[1] = system: XPA knockout HAP1 cells; test: HAP1 XPA knockout cytotoxicity (WST-1 assay) with and without UVA; type: cell-based; conditions: for WST-1 raw signal (Figure 5h): replicates
Method: Fig. 5 Comparison of G4 ligand photosensitization. […] Vertical axis, fractional survival, horizontal axis log10 drug concentration (M) (f) Representative images of CPD immunofluorescent staining under UV and drug treatment conditions for U2OS cells, quantified from biological duplicates in (g) (h) Scale bar = 100um. U2OS cells were treated with drug or vehicle control, then immediately irradiated with UVA 125 mJ/cm^2; and fixed 1 h later for immunofluorescence staining with CPD antibody. g Distribution of mean intensity of CPD level per cell (total n = in labels), with two biological repeats per condition. Vertical axis, mean CPD intensity per cell, horizontal axis, conditions (h) WT or KO XPA HAP1 cells assayed for cytotoxicity. Vertical axis, fractional survival (WST-1 assay). The horizontal axis, log10 drug concentration (M). Error bars = standard deviation of the mean. Three biological repeats per condition.
Human epidermal keratinocytes (HEKa) cells were sourced from Thermo Fisher Scientific, and were grown in EpiLife™ Medium with HKGS. HAP WT and XPA knockout cell lines (Horizon Discovery) were cultured in IMDM, 10% FCS. Human HCT116 cells, U2OS cells (ATCC) were grown in McCoy’s 5 A medium with 10% FBS and L-glutamine. All cell lines are mycoplasma free and have been authenticated by STR or SNP profiling. CX-5461 was provided by Senhwa Biosciences, Inc. PDS is from Sigma-Aldrich, BRACO-19 from Alfa Chemistry, PhENDC3 is from Sigma-Aldrich, γ -H2AX antibody from Abcam (1:1000 for IF) and CPD antibody (1:1500) from Cosmo Bio Ltd. (Catalog number: CAC-NM-DAD-001). The WST-1 assay was performed as previously described, γ H2AX foci staining was performed as previously described. Immunofluorescence staining of CPD was performed according to the protocol from the manufacturer (Cosmo Bio Ltd).

[2] = system: HCT116 cells; test: ROS measurement with H2DCFDA before/after UVA 125 mJ/cm^2; type: cell-based, Human; conditions: CX-5461 0.1 μM or PDS 10 μM for 1 h
Method: ROS measurement with H2DCFDA: HCT116 cells were treated with vehicle, CX-5461 0.1 μM or PDS 10 μM for 1 h, then were added with H2DCFDA for 45 min before initial fluorescence measurement. Cells were then irradiated with UVA 125 mJ/cm^2, and immediately sent for a second fluorescent measurement. The ratio of the second and the first fluorescent measurement was calculated as the level of ROS induced by UVA. Assays were performed in the 1-hour time frame within which UV damage manifests, in contrast to G4 ligand-induced damage which takes 3–4 h to be measurable.
Supplementary Figures and Tables
Supplementary Figure 1. UVA radiation increased double-stranded DNA breaks and ROS.
Representative pictures of g -H2AX immunofluorescent staining with and without UVA radiation, for […]
condition, quantified in (b) Quantile and mean intensity of g-H2AX level per cell, vertical axis. UV and drug factor conditions, horizontal axis. Experiments were repeated two times (biological duplicates) and similar results were obtained. Number of cells as in Figure 5 g (c) The ratio of ROS level measured after UVA irradiation versus before UVA irradiation was calculated. Biological triplicates. The horizontal bar = median. ***P<0.0001, Welch’s t-test; n=8
(1 picture or pasted object on this page, not shown here)

## Cc1cnc(CNC(=O)c2c(=O)c3ccc(N4CCCN(C)CC4)nc3n3c2sc2ccccc23)cn1 [CX-5461]
[1]; conc 1.00E-07, 125 mJ/cm2 XPA
  WST-1 raw signal (Figure 5h): 0.1279 and 0.1288
[1]; conc 1.00E-07, XPA No UV
  WST-1 raw signal (Figure 5h): 0.1234 and 0.1195
[1]; conc 1.25E-08, 125 mJ/cm2 XPA
  WST-1 raw signal (Figure 5h): 0.1288 and 0.1302
[1]; conc 1.25E-08, XPA No UV
  WST-1 raw signal (Figure 5h): 3.2483 and 2.9851
[1]; conc 1.56E-09, 125 mJ/cm2 XPA
  WST-1 raw signal (Figure 5h): 0.1344 and 0.1335
[1]; conc 1.56E-09, XPA No UV
  WST-1 raw signal (Figure 5h): 3.436 and 3.4453
[1]; conc 2.00E-07, 125 mJ/cm2 XPA
  WST-1 raw signal (Figure 5h): 0.0895 and 0.1298
[1]; conc 2.00E-07, XPA No UV
  WST-1 raw signal (Figure 5h): 0.1255 and 0.1238
[1]; conc 2.50E-08, 125 mJ/cm2 XPA
  WST-1 raw signal (Figure 5h): 0.1291 and 0.1284
[1]; conc 2.50E-08, XPA No UV
  WST-1 raw signal (Figure 5h): 0.4389 and 0.6241
[1]; conc 3.13E-09, 125 mJ/cm2 XPA
  WST-1 raw signal (Figure 5h): 0.128 and 0.1287
[1]; conc 3.13E-09, XPA No UV
  WST-1 raw signal (Figure 5h): 3.4207 and 3.5618
[1]; conc 3.91E-10, 125 mJ/cm2 XPA
  WST-1 raw signal (Figure 5h): 2.554 and 2.4891
[1]; conc 3.91E-10, XPA No UV
  WST-1 raw signal (Figure 5h): 3.4121 and 3.399
[1]; conc 5.00E-08, 125 mJ/cm2 XPA
  WST-1 raw signal (Figure 5h): 0.1275 and 0.1296
[1]; conc 5.00E-08, XPA No UV
  WST-1 raw signal (Figure 5h): 0.1252 and 0.1218
[1]; conc 6.25E-09, 125 mJ/cm2 XPA
  WST-1 raw signal (Figure 5h): 0.1286 and 0.1316
[1]; conc 6.25E-09, XPA No UV
  WST-1 raw signal (Figure 5h): 3.488 and 3.4015
[1]; conc 7.81E-10, 125 mJ/cm2 XPA
  WST-1 raw signal (Figure 5h): 0.5854 and 0.7406
[1]; conc 7.81E-10, XPA No UV
  WST-1 raw signal (Figure 5h): 3.4022 and 3.4603
[1]; with UVA
  effect of UVA radiation on cytotoxicity: to a greater extent in XPA knockout cells
[2]
  ROS in the presence of UVA (ratio after/before UVA): markedly increased
